Literature values in PMC11555678, “Improved Broad Spectrum Antifungal Drug Synergies with Cryptomycin, a Cdc50-Inspired Antifungal Peptide” (ACS Infectious Diseases, 2024).
Converted amounts (≈) assume the structure as drawn.

What was measured:
[1] = tested on: C. neoformans cdc50Δ; conditions: Cdc50 deleted, previous study; cited from earlier work
Experimental: Our previous studies have identified that the Cn cdc50Δ mutant was highly susceptible to CAS compared to the wild-type.[23] The minimum inhibitory concentration (MIC) of CAS was reduced 4-fold from 16 to 4 μg/mL when Cdc50 was deleted. The surprising observation that loss of Cdc50 sensitized Cryptococcus to CAS led to an obvious question: why did a mutation to a seemingly disparate cellular system-membrane homeostasis proteins have such a dramatic effect on the susceptibility to cell wall biosynthesis inhibitors? It was subsequently discovered that Cdc50 in C. neoformans is unique because it h ...

[2] = tested on: C. neoformans MRL862; conditions: cited from earlier work
Experimental: First, the MICs of the peptides and commonly used antifungal drugs were assessed on their own. A full accounting of MICs of intermediate SAR screen peptides is reported in Supporting Information, Table S1.

SMILES	MIC [1]	MIC, reported value [2]
CC[C@H](C)C[C@H](C)CCCCCCCCC(=O)N[C@H]1C[C@@H](O)[C@@H](NCCN)NC(=O)[C@@H]2[C@@H](O)CCN2C(=O)[C@H]([C@H](O)CCN)NC(=O)[C@H]([C@H](O)[C@@H](O)c2ccc(O)cc2)NC(=O)[C@@H]2C[C@@H](O)CN2C(=O)[C@H]([C@@H](C)O)NC1=O [CAS, caspofungin]	4 µg/mL (≈ 3.66 µM)	–
OC(Cn1cncn1)(Cn1cncn1)c1ccc(F)cc1F [FLC, fluconazole]	–	128 µg/mL (≈ 418 µM)
